Assay results reported in patent US20160010138A1, “RAPID DETERMINATION OF MICROBIAL DROWTH AND ANTIMICROBIAL SUSEPTABILITY” (priority 2013, published 2016).
Like-named read-outs stand apart in the source and are kept apart here.

Legend:
E. coli [1] = experiment: Respiratory/metabolic activity indicator labeling (2-NBDG uptake); type: cell-based; settings: overnight refrigerator stock culture; approximately 1 min of exposure to 1 μM
Source text: (§1) Physiologic indicators of active bacteria include indicators of growth, responsiveness to external stimulus, transcription, translation, energy dependent activity, enzyme activity, and an intact permeability barrier. The indicators tested experimentally were grouped according to the following functional categories of physiologic states to which they are responsive, which included indicators of respiratory and metabolic activity, and membrane integrity.
(§2) 2-NBDG (Molecular Probes) is a fluorescent derivative (green channel) of D-glucose that is internalized by active bacteria.

K. pneumoniae = experiment: as above; type: cell-based; settings: overnight refrigerator stock culture; approximately 1 min of exposure to 1 μM
Source text: as §1, §2

S. maltophilia = experiment: as above; type: cell-based; settings: overnight refrigerator culture; negative control (does not metabolize glucose)
Source text: as §1, §2

H. influenzae = experiment: as above; type: cell-based; settings: overnight refrigerator culture, viability independently verified
Source text: as §1, §2

S. aureus = experiment: as above; type: cell-based; settings: overnight refrigerator culture, viability independently verified
Source text: as §1, §2

E. coli [2] = experiment: Membrane potential indicator, red:green fluorescence ratio; type: cell-based; settings: O/N refrigerator stock vs CCCP-treated E. coli
Source text: as §1
Active bacterial cells maintain a proton gradient across their cell membranes, creating a membrane potential that may be measured using fluorescent dyes. However, the dyes used in this study to evaluate membrane potential are toxic to bacteria and can only be used as an endpoint assay.
DiOC2(3) (Molecular Probes) is a dye that fluoresces in the red channel when it is highly concentrated and self-associates in cells with an intact membrane potential. […] The red:green fluorescence ratio is used to normalize the fluorescence results of cells with differing sizes. Carbonylcyanide-m-chlorophenylhydrazone (CCCP) is a proton ionophore that disrupts the proton gradient and was used to treat E. coli cells in an experimental sample that was compared to an untreated overnight refrigerator stock.

Enteric = experiment: MADM (BACcel) phenotype/sensitivity by growth analysis, surveillance mini-BAL; type: cell-based; settings: Spec# 005-D7, BACcel ID Enteric, 1.26 × 10^5 CFU/ml
Procedure: (§3) Adult MICU patients with identified surrogate were included within 72 hours of intubation and if anticipated to require MV for >48 h. Moribund state or pregnancy were exclusions. Surveillance mini-BAL (Combicath, Plastimed) was performed on Day 1, 3, 5, 7 and 10 of MV. Samples were split and processed for both a) routine respiratory quantitative microbiological culture and sensitivity assays (>48 h result availability) and b) rapid (<8 hour) flowcell/surface-capture assays using the MADM system. Viable microorganisms were identified using growth analysis enhanced by a focused VAP antibody panel (S. aureus, P. aeruginosa, A. baumannii). Untypable organisms were also reported. Sensitivity was assessed using growth analysis. Attending physicians were blinded to MADM system results.
BAL sample were prepared, removing debris and separating microorganisms from other sample material. Sample microorganisms were introduced into a multichannel fluidic cassette as described elsewhere herein. […]
The automated digital microscopy system was used to perform darkfield imaging of 10 fields of view every 10 minutes for 180 minutes in each flowcell channel. […] Quantitation was performed by counting identified microorganisms and computing original specimen CFU/mL.

[3] = test system: Staphylococcus aureus (SA); experiment: Same-day blood culture MADM drug resistance phenotyping; type: cell-based; settings: SA in 6 μg/mL FOX, dark-field images over 3 hours (FIG. 10B)
Procedure: The MADM system used a custom microscope and pipetting robot, plus an evaluation system, as described herein. 32-channel disposable cassettes (FIG. 4A) enabled live microorganism immobilization for microscopy and fluid exchanges for different test agents. The microscope scanned 40 image fields in each flowcell channel, each channel having organisms extracted from about 3.5 μL of prepared inoculum.
Simulated blood specimens consisted of isolates spiked into 10 mL each of 29 aliquots of two short-fill CPD blood bank bags to make approximately 5 CFU/mL of bacterial target species, confirmed by quantitative culture. Spiked isolates included 14 Staphylococcus aureus (SA), 3 Pseudomonas aeruginosa (PA), or 12 non-target Gram-negative bacilli species. Dilution of each sample with 30 mL of modified TSB culture medium promoted growth. 20 additional control aliquots contained no spikes. 4-hour incubation at 35° C., followed with brief spin cleanup, ended with pellet resuspension into an electrokinetic buffer to make 1 mL samples for MADM system analysis. 20 μL sample aliquots were then pipetted into 14 cassette flowcells. A 5-minute low-voltage electrokinetic capture was performed to concentrate microorganisms on the lower surface of each flowcell where a capture coating immobilized the bacterial cells. […]

Steno = experiment: MADM (BACcel) phenotype/sensitivity by growth analysis, surveillance mini-BAL; type: cell-based, S. maltophilia
Procedure: as §3
(§4) BAL sample were prepared, removing debris and separating microorganisms from other sample material. Sample microorganisms were introduced into a multichannel fluidic cassette as described elsewhere herein. Bacteria were concentrated and retained on the lower surface of all flowcells using low-voltage electrical field (5 min) Antibody labeling of bacteria in flowcells was used to aid identification.
(§5) The automated digital microscopy system was used to perform darkfield imaging of 10 fields of view every 10 minutes for 180 minutes in each flowcell channel. Initial epifluorescence imaging was also performed for antibody detection. […] Identification consisted of probability scores based on microorganism morphology and growth rates. Antibody labeling identification data was also incorporated. Observed microorganisms were then classified as STAU, PSAE, or non-target. Antibiotic responses were used to aid identification when appropriate. Quantitation was performed by counting identified microorganisms and computing original specimen CFU/mL.

[4] = test system: Staphylococcus aureus (STAU); experiment: MADM system resistance phenotype tests on respiratory specimens; type: cell-based; settings: for resistance phenotype result (S/R), MADM: ID STAU, MRSA by FOX
Procedure: (ABCC). Concurrent quantitative culture was performed on specimens.
Specimen preparation used a brief procedure to release bacteria, reduce imaging background, and suspend bacteria in a low ionic strength buffer. […] We rejected 10 samples with heavy interfering background when dilution to OD600=0.3 yielded organism counts inadequate for analysis. We rejected 7 samples for other technical deficiencies. The remaining 62 specimens were tested using the MADM system.
(§6) 20 μL samples of prepared specimen were pipetted into independent flowcell channels and a low-voltage electrical field was applied for 5 minutes. The electrical field concentrated bacteria onto a functional surface coating that immobilized the bacteria on the lower flowcell surface. Each flowcell channel received only one type of test reagent solution that contained a selective agent if required (only for channels used to test AB, sulbactam 32 μg/mL).
(§7) The instrument acquired images at 10-minutes intervals for 180 minutes, using 10 fields of view in each flowcell channel through a 20× objective. Imaging used darkfield illumination. Identification variables included response to selective agents (AB with sulbactam), cell morphology, growth morphology, and growth rate.
(§8) Identification algorithms applied to each individual immobilized bacterial cell. The system measured the amount of change in mass over time to compute growth rates. Identification consisted of computing and combining probability scores for morphology, response to selective media, and growth rates to produce a receiver operating characteristic curve (ROC) to derive classification criteria.

STAU = experiment: MADM (BACcel) phenotype/sensitivity by growth analysis, surveillance mini-BAL; type: cell-based, S. aureus; settings: Spec# 008-D7, BACcel ID STAU, 1.11 × 10^6 CFU/ml
Procedure: as §3, §4, §5

[5] = test system: Pseudomonas aeruginosa (PSAE); experiment: MADM system resistance phenotype tests on respiratory specimens; type: cell-based; settings: ID PSAE; further: key: S: susceptible; R: resistant
Procedure: (§9) These specimens were prepped for introduction into the MADM system. The system performed quantitative ID for Staphylococcus aureus (STAU), Pseudomonas aeruginosa (PSAE), and Acinetobacter spp. (ABCC). Concurrent quantitative culture was performed on specimens. The MADM system performed resistance phenotype tests on STAU-containing specimens for cefoxitin (FOX) MRSA phenotyping and clindamycin (CLI) resistance. The system tested ABCC- and PSAE-containing specimens for amikacin (AN) and imipenem (IMP) resistance.
(§10) Specimen preparation used a brief procedure to release bacteria, reduce imaging background, and suspend bacteria in a low ionic strength buffer. […] The remaining 62 specimens were tested using the MADM system.
as §6, §7, §8

[6] = test system: Pseudomonas aeruginosa (PSAE); type: cell-based; settings: ID PSAE, culture result; further: key: S: susceptible; R: resistant
Source text: (§11) A total of 281 de-identified remnant respiratory specimens were collected from hospital and commercial sources. The specimens included 25 endotracheal aspirates (ETA) of unknown age obtained from a specimen vendor. Also included were 230 mini-bronchoalveolar lavage (mini-BAL) and 26 ETA specimens obtained from Denver Health Medical Center (DHMC). DHMC specimens were 7-21 days old. AST results were available for all mini-BAL specimens but not for ETA. Accompanying reports also included semi-quantitative ID used to select 92 bacteria-positive specimens for analysis using the MADM system. Targets included Pseudomonas aeruginosa, Acinetobacter baumannii complex, and Staphylococcus aureus. Controls used standard culturing methods (Cx).
as §9

[7] = test system: Acinetobacter spp. (ABCC); experiment: MADM system resistance phenotype tests on respiratory specimens; type: cell-based, Acinetobacter sp.; settings: ABCC-positive specimen (specimen name not given); further: key: S: susceptible; R: resistant
Procedure: as §9, §10, §6, §7, §8

[8] = test system: Acinetobacter spp. (ABCC); settings: ABCC-positive specimen (specimen name not given); culture result
Source text: as §11, §9

In the case of `O=[N+]([O-])c1ccc(N[C@H]2C(O)O[C@H](CO)[C@@H](O)[C@@H]2O)c2nonc12` (some centres unmarked) [2-NBDG], the fluorescent labeling (E. coli [1]) is reported as “fluorescently labeled”, the fluorescent labeling (K. pneumoniae) is reported as “fluorescently labeled” and the fluorescent labeling (S. maltophilia) is reported as “did not fluoresce”. For the same compound, the fluorescent labeling (H. influenzae) was “did not fluoresce” and the fluorescent labeling (S. aureus) was “did not fluoresce”.

With `CCN1/C(=C/C=C/c2oc3ccccc3[n+]2CC)Oc2ccccc21.[I-]` [DiOC2(3)] the “red:green fluorescence ratios” value (E. coli [2]) was “No significant difference”.

`CO[C@@]1(NC(=O)Cc2cccs2)C(=O)N2C(C(=O)O)=C(COC(N)=O)CS[C@@H]21` [FOX, cefoxitin] was tested, and the “Phenotype, sensitivity (growth in antibiotic)” value (Enteric) was “all growth”, the “clone growth in drug” value [3] was “growth indicating MRSA phenotype” and the “Phenotype, sensitivity (growth in antibiotic)” value (Steno; Spec# 006-D1, BACcel ID Steno, 7.68 × 10^5 CFU/ml) was “growth, TZP-”. For the same compound, the “Phenotype, sensitivity (growth in antibiotic)” value (Steno; Spec# 006-D3, BACcel ID Steno, 1.60 × 10^4 CFU/ml) was “growth, TZP-”, the “resistance phenotype result (S/R), MADM” value ([4]; specimen DH 425, Mini-BAL) was “R” and the “resistance phenotype result (S/R), MADM” value ([4]; specimen DH 427, Mini-BAL) was “S”. For the same compound, the “resistance phenotype result (S/R), MADM” value ([4]; specimen DH 439, Mini-BAL) was “R”, the “resistance phenotype result (S/R), MADM” value ([4]; specimen DH 440, BAL) was “S” and the “resistance phenotype result (S/R), MADM” value ([4]; specimen DH 457, BAL) was “S”. For the same compound, the “resistance phenotype result (S/R), MADM” value ([4]; specimen DH 485, BAL) was “S”, the “resistance phenotype result (S/R), MADM” value ([4]; specimen DH 509, BAL) was “S” and the “resistance phenotype result (S/R), MADM” value ([4]; specimen DH 514, Mini-BAL) was “S”. The “resistance phenotype result (S/R), MADM” value ([4]; specimen DH 543, BAL) was “S”, the “resistance phenotype result (S/R), MADM” value ([4]; specimen DH 550, BAL) was “S” and the “resistance phenotype result (S/R), MADM” value ([4]; specimen DH 556, Mini-BAL) was “S”. For the same compound, the “resistance phenotype result (S/R), MADM” value ([4]; specimen T12, ETA) was “R”, the “MRSA/MSSA call by FOX in the MADM system” value ([4]; the one discordant STAU sample) was “MRSA” and the “Phenotype, sensitivity” value (STAU) was “FOX - R”.

In the case of `C[C@@H](O)[C@H]1C(=O)N2C(C(=O)O)=C(SCCN=CN)C[C@H]12` [IMP, imipenem], the “resistance phenotype result (S/R), MADM” value ([5]; specimen DH 430, Mini-BAL) is reported as “S”, the “resistance phenotype result (S/R), MADM” value ([5]; specimen DH 554, BAL) is reported as “S” and the “resistance phenotype result (S/R), MADM” value ([5]; specimen DH 641, Mini-BAL) is reported as “S”. The “resistance phenotype result (S/R), Cx” value ([6]; specimen DH 430, Mini-BAL) was “S”, the “resistance phenotype result (S/R), Cx” value ([6]; specimen DH 554, BAL) was “S” and the “resistance phenotype result (S/R), Cx” value ([6]; specimen DH 641, Mini-BAL) was “S”. The “resistance phenotype result (S/R), MADM” value [7] was “S” and the “resistance phenotype result (S/R), Cx” value [8] was “S”.
